Patent US7781393B2, “Methods for inhibiting tumor cell growth” (Dana-Farber Cancer Institute, Inc., priority 2004, dated 2010)

Tests used:
MM1S-LucNeo cells = assay: Orthotopic mouse model of multiple myeloma, bioluminescence imaging; type: in vivo; settings: 50 mg/kg PO BID, after 8 days of treatment, p=0.58
Method: MM1S-LucNeo cells were created by transducing MM1S cells with a retrovirus encoding the firefly luciferase coding region fused to neomycin phosphotransferase (pMMP-LucNeo). Transduced cells were selected by growth in medium (RPMI, 10% FBS, penicillin/streptomycin) containing G418 at an effective concentration of 1 mg/ml.
NOD-SCID mice (Jackson Laboratory) were sublethally irradiated with 300 rads from a ^137CS source. Three hours after irradiation, a total of 5×10^6 MM1S-LucNeo cells in mid-logarithmic growth phase were injected via tail vein into each mouse in a volume of 300 μL of PBS. Mice were maintained under sterile conditions.
Bioluminescence imaging was performed with a Xenogen In Vivo Imaging System (IVIS 100). Mice were anesthetized by IP injection of ketamine 150 mg/kg and xylazine 12 mg/kg, and simultaneously D-luciferin 50 mg/kg was administered by IP injection. Imaging was performed 15 minutes after D-luciferin injection with a setting of 2 minutes, and a bin setting of 2. Mice were allowed to recover under isothermic conditions. Mice were imaged weekly beginning 2 weeks after tumor inoculation. Mice with increasing tumor burden were divided into 2 statistically equivalent cohorts, and treatment was started 4 weeks after tumor inoculation. […]

BM stromal cells (BMSCs) = assay: Viability of bone marrow stromal cells (MTT); type: cell-based, human; settings: 0.5 μM
Method: Primary MM patient samples were freshly isolated from bone marrow aspirates from patients undergoing diagnostic or restaging bone marrow aspirates under an IRB-approved protocol. MM cells were purified using custom-made RosetteSep cocktail of monoclonal antibodies (mAb's) (StemCell Technologies Inc, Vancouver, Canada) for negative selection of CD138^+ MM cells. The CD138^− fraction of the MM cell purification process was cultured in 20% FBS-supplemented media for isolation of the adherent bone marrow stromal cells. Peripheral blood B cells were isolated by ficoll-density centrifugation of peripheral blood samples from MM patients. […] […] At the end of each treatment, cells were incubated with 1 mg/ml MTT for 4 hours at 37° C.; a mixture of isopropanol and 1N HCl (23:2, v/v) was then added under vigorous pipetting to dissolve the formazan crystals. Dye absorbance (A) in viable cells was measured at 570 nm, with 630 nm as a reference wavelength. Cell survival was estimated as a percentage of the value of untreated controls. All experiments were repeated at least three times, and each experimental condition was repeated at least in quadruplicate wells in each experiment.

peripheral blood B-cells = assay: Viability of peripheral blood B-cells; type: cell-based, human; settings: 0.5 μM
Method: Primary MM patient samples were freshly isolated from bone marrow aspirates from patients undergoing diagnostic or restaging bone marrow aspirates under an IRB-approved protocol. MM cells were purified using custom-made RosetteSep cocktail of monoclonal antibodies (mAb's) (StemCell Technologies Inc, Vancouver, Canada) for negative selection of CD138^+ MM cells. The CD138^− fraction of the MM cell purification process was cultured in 20% FBS-supplemented media for isolation of the adherent bone marrow stromal cells. Peripheral blood B cells were isolated by ficoll-density centrifugation of peripheral blood samples from MM patients.
To assess whether MM cells are more susceptible to inhibition of IGF-1R signaling, than normal cells in their immediate environment, primary MM cells, normal bone marrow stromal cells and peripheral blood B-cells, were exposed to 0.5 μM NVP-AEW541.

## Nc1ncnc2c1c(-c1cccc(OCc3ccccc3)c1)cn2[C@H]1C[C@@H](CN2CCC2)C1 [NVP-AEW541]
MM1S-LucNeo cells
  body weight: no difference in body weight
BM stromal cells (BMSCs)
  viability of bone marrow stromal cells: no effect on the viability
Peripheral blood B-cells
  viability of peripheral blood B-cells: no effect on the viability
